Assay results reported in patent publication US7326732B2, “EP2 receptor agonists” (Pharmagene Laboratories Limited, priority 2004, dated 2008).

How the values were obtained:
[1] = molecular target: T1, human EP2 receptor (Homo sapiens, UniProt P43116); assay: Binding ability to human EP receptors ([3H]PGE2 displacement), EP2; details: membranes expressing human EP2; [3H]PGE2 3 nM; Cheng-Prusoff; read-out: pKi (M) EP2 (converted)
T1 construct: expressed in transfected cells
Experimental: (§1) Membranes were prepared from cells stably transfected with human EP receptor cDNA. In brief, cells were cultured to confluency, scraped from culture flasks, and centrifuged (800 g, 8 minutes, 4° C.). Cells were twice washed in ice cold homogenisation buffer containing 10 mMTris-HCl, 1 mM EDTA.2Na, 250 mM sucrose, 1 mM PMSF, 0.3 mM indomethacin, pH 7.4, homogenised and re-centrifuged as before. The supernatant was stored on ice and pellets re-homogenised and re-spun. Supernatants were pooled and centrifuged at 40000 g, 10 minutes, 4° C. Resultant membrane pellets were stored at −80° C. until use. For assay, membranes expressing human EP4, EP3, EP2 or EP1 receptors were incubated in Millipore (MHVBN45) plates containing assay buffer, radiolabelled [^3H]PGE2 and 0.1 to 10 000 nM concentrations of compounds. Incubations were performed at suitable temperatures and for suitable times to allow equilibrium to be reached. Non-specific binding was determined in the presence of 10 uM PGE2. Bound and free radiolabel was separated by vacuum manifold filtration using appropriate wash buffers, and bound radiolabel was determined by scintillation counting. Constituents of each of the buffers are included in table 1 below. […] Raven Press, New York, 2nd edition.

[2] = molecular target: T2, human EP2 prostanoid receptors (Homo sapiens, UniProt P43116); assay: Agonist activity at recombinant human EP2 prostanoid receptors (cAMP in HEK-293 clones); assay type: cell-based; details: for EC50: HEK-293 stably transfected with human EP2, cAMP accumulation, read-out: pEC50 EP2 (converted); for activity (EP2 part): functional classification at EP2
T2 construct: expressed in transfected cells; host or cells: HEK-293
T2 sequence (P43116 whole entry): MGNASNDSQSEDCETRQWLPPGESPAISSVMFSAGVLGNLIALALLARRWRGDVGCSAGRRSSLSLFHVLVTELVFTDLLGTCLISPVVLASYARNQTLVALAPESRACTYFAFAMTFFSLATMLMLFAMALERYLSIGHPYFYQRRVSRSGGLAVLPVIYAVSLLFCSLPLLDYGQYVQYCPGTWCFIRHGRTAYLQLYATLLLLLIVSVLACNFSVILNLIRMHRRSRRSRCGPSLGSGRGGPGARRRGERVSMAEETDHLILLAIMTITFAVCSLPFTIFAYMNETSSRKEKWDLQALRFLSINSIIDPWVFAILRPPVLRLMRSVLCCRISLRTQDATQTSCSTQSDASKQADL
Experimental: Culture media was Minimal essential media (MEM), supplemented with 10% foetal bovine serum, 100 U/ml penicillin, […] streptomycin, 2.5 μg/ml fungizone, 2mM glutamine. Cells were cultured to confluency (3-4 days) prior to use. Culture media was removed, and confluent cells washed three times in MEM. […] Cells were then stimulated by the addition of 25 μl of PGE2 or agonists prepared in assay buffer. In antagonist studies, cells were pre-incubated with compounds for 30 minutes prior to PGE2-mediated stimulation Plates were incubated for 15 min at 37° C., before termination of the reaction by the addition of 25 μl 1M HCl. The plate was then frozen at -20° C. overnight before determination of cAMP concentration. Stimulated cAMP levels were determined by radioligand displacement binding. In brief, plates were thawed rapidly in a waterbath, and the samples neutralised by the addition of 25 μl 1M NaOH. 30 μl was transferred to Millipore plates pre-coated with 0.5% Polyethylenimine (PEI). Samples were diluted by addition of 90 μl cAMP determination buffer (50 mM Tris, 5 mM EDTA, pH 7.0). […] 15 μl of 2 nM (final concentration) [^3H] cAMP, and 15 μl of 3'5'-cAMP protein kinase (8 μg/well final concentration) prepared in cAMP determination buffer containing 0.1% BSA, were added to each well. Plates were incubated on ice for 2 hours, before bound and free radiolabel were separated by vacuum filtration harvesting using the Millipore vacuum manifold, using ice cold water as the termination buffer. The sealing mat was removed from the Millipore plates, and the filters allowed to dry overnight. 50 μl Microscint 0 (Packard Bioscience) was added to each well, and the plate counted using the Micro-Beta Trilux topcount ^3H program. cAMP accumulation was determined from the standard curve, and values calculated in pmoles cAMP/well. Antagonists affinities (pA2 values) were determined assuming a slope of unity and the […]-Schild equation, where pA2=log [concentration ratio-1]-log[antagonist].

[3] = molecular target: T3, human EP3 receptor (Homo sapiens, UniProt P43115); assay: Binding ability to human EP receptors ([3H]PGE2 displacement), EP3; details: membranes expressing human EP3; [3H]PGE2 2.5 nM; Cheng-Prusoff; read-out: pKi (M) EP3 (converted)
T3 construct: expressed in transfected cells
T3 sequence (P43115 1-390): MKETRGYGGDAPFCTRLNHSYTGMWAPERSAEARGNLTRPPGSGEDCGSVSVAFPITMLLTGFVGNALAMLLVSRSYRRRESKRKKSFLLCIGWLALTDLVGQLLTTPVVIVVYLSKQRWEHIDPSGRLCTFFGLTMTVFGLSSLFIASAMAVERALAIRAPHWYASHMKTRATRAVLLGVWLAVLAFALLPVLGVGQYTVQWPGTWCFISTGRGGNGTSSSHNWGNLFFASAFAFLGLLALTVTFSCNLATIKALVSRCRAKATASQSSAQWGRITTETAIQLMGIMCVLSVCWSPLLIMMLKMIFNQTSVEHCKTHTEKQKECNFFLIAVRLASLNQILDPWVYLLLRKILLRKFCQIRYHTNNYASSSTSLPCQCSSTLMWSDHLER
Experimental: as §1

[4] = molecular target: T4, human EP4 receptor (Homo sapiens, UniProt P35408); assay: Binding ability to human EP receptors ([3H]PGE2 displacement), EP4; details: membranes expressing human EP4; [3H]PGE2 1 nM; Cheng-Prusoff; read-out: pKi (M) EP4 (converted)
T4 construct: expressed in transfected cells
T4 sequence (P35408 whole entry): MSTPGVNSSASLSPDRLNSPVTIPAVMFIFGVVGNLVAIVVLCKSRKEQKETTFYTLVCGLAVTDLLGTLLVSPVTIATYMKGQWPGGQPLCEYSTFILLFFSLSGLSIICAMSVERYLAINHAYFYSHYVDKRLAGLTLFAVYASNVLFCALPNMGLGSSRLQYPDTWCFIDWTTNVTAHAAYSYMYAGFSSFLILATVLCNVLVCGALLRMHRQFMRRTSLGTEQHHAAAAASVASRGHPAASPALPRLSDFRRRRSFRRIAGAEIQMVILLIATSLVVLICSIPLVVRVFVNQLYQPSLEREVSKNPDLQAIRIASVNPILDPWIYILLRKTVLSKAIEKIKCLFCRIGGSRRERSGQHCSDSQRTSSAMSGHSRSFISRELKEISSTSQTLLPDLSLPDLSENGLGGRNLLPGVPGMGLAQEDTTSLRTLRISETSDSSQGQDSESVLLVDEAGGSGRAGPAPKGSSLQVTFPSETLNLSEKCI
Experimental: as §1

T1 sequence (P43116 whole entry): as the sequence (P43116 whole entry) above

| Ki [1] [M] | EC50 [2] [nM] | activity (EP2 part) [2] | Ki [3] [M] | Ki [4] [M] | SMILES |
| --- | --- | --- | --- | --- | --- |
| < 1e-06 | < 1000 | EP2 agonist | > 1e-05 | > 1e-05 | O=C(O)Cc1cccc(NC(=O)c2ccc(-c3ccccc3)o2)c1 [Compound 10, (3-{[5-(phenyl)-furan-2-carbonyl]-amino}-phenyl)-acetic acid] |
| < 1e-06 | < 1000 | EP2 agonist | > 1e-05 | > 1e-05 | COc1ccc(-c2ccc(C(=O)Nc3cccc(CC(=O)O)c3)o2)cc1 [Compound 12, (3-[(5-(4-Methoxy-phenyl)-furan-2-carbonyl)-amino]-phenyl)-acetic acid] |
| < 1e-06 | < 10000 | EP2 agonist | > 1e-05 | > 1e-05 | CN(C)c1ccc(-c2ccc(C(=O)Nc3cccc(CC(=O)O)c3)o2)cc1 [Compound 14, (3-[(5-(4-Dimethylamino-phenyl)-furan-2-carbonyl)-amino]-phenyl)-acetic acid] |
| < 1e-06 | < 1000 | EP2 agonist | > 1e-05 | > 1e-05 | COc1ccccc1-c1ccc(C(=O)Nc2cccc(CC(=O)O)c2)o1 [Compound 17, (3-{[5-(2-Methoxy-phenyl)-furan-2-carbonyl]-amino}-phenyl)-acetic acid] |
| < 1e-06 | < 1000 | EP2 agonist | > 1e-05 | > 1e-05 | COc1cccc(-c2ccc(C(=O)Nc3cccc(CC(=O)O)c3)o2)c1 [Compound 18, (3-{[5-(3-Methoxy-phenyl)-furan-2-carbonyl]-amino}-phenyl)-acetic acid] |
| < 1e-06 | < 10000 | EP2 agonist | > 1e-05 | > 1e-05 | CC(=O)c1cccc(-c2ccc(C(=O)Nc3cccc(CC(=O)O)c3)o2)c1 [Compound 19, (3-{[5-(3-Acetyl-phenyl)-furan-2-carbonyl]-amino}-phenyl)-acetic acid] |
| < 1e-06 | < 10000 | EP2 agonist | > 1e-05 | > 1e-05 | CC(=O)c1ccc(-c2ccc(C(=O)Nc3cccc(CC(=O)O)c3)o2)cc1 [Compound 20, (3-{[5-(4-Acetyl-phenyl)-furan-2-carbonyl]-amino}-phenyl)-acetic acid] |
| < 1e-06 | < 1000 | EP2 agonist | > 1e-05 | > 1e-05 | Cc1cccc(-c2ccc(C(=O)Nc3cccc(CC(=O)O)c3)o2)c1 [Compound 21, (3-{[5-(3-Methyl-phenyl)-furan-2-carbonyl]-amino}-phenyl)-acetic acid] |
| < 1e-07 | < 100 | EP2 agonist | > 1e-05 | > 1e-05 | O=C(O)Cc1cccc(NC(=O)c2ccc(-c3ccc(Cl)c(Cl)c3)o2)c1 [Compound 27, (3-{[5-(3,4-Dichloro-phenyl)-furan-2-carbonyl]-amino}-phenyl)-acetic acid] |
| < 1e-05 | < 1000 | EP2 Agonist | > 1e-05 | > 1e-05 | O=C(O)Cc1cccc(NC(=O)c2ccc(-c3ccccc3Cl)o2)c1 [Compound 30, (3-{[5-(2-Chloro-phenyl)-furan-2-carbonyl]-amino}-phenyl)-acetic acid] |
| < 1e-06 | < 1000 | EP2 agonist | > 1e-05 | < 1e-06 | O=C(O)Cc1cccc(NC(=O)c2ccc(-c3cccc4ccccc34)o2)c1 [Compound 31, {3-[(5-Naphthalen-1-yl-furan-2-carbonyl)-amino]-phenyl}-acetic acid] |
| < 1e-06 | < 1000 | EP2 agonist | > 1e-05 | < 1e-06 | CC(C)c1cccc(-c2ccc(C(=O)Nc3cccc(CC(=O)O)c3)o2)c1 [Compound 34, (3-{[5-(3-Isopropyl-phenyl)-furan-2-carbonyl]-amino}-phenyl)-acetic acid] |
| < 1e-06 | < 100 | EP2 agonist | > 1e-05 | > 1e-05 | O=C(O)Cc1cccc(NC(=O)c2ccc(-c3ccc4c(c3)OCO4)o2)c1 [Compound 36, {3-[(5-Benzo[1,3]dioxol-5-yl-furan-2-carbonyl)-amino]-phenyl}-acetic acid] |
| < 1e-06 | < 1000 | EP2 agonist | > 1e-05 | > 1e-05 | O=C(O)Cc1cccc(NC(=O)c2ccc(-c3cccc(Cl)c3Cl)o2)c1 [Compound 37, (3-{[5-(2,3-Dichloro-phenyl)-furan-2-carbonyl]-amino}-phenyl)-acetic acid] |
| < 1e-07 | < 100 | EP2 agonist | > 1e-05 | > 1e-05 | O=C(O)Cc1cccc(NC(=O)c2ccc(-c3cccc(Cl)c3)o2)c1 [Compound 39, (3-{[5-(3-Chloro-phenyl)-furan-2-carbonyl]-amino}-phenyl)-acetic acid] |
| < 1e-06 | < 100 | EP2 agonist | > 1e-05 | > 1e-05 | O=C(O)Cc1cccc(NC(=O)c2ccc(-c3ccc(Cl)cc3)o2)c1 [Compound 40, (3-{[5-(4-Chloro-phenyl)-furan-2-carbonyl]-amino}-phenyl)-acetic acid] |
| < 1e-07 |  |  | > 1e-05 | < 1e-06 | O=C(O)/C=C/c1cccc(SCc2csc(-c3ccccc3)n2)c1 [Compound 122, 3-[3-(2-Phenyl-thiazol-4-ylmethylsulfanyl)-phenyl]-acrylic acid] |
| < 1e-06 |  |  | > 1e-05 | > 1e-05 | O=C(O)/C=C/c1cccc(NC(=O)c2ccc(C34CC5CC(CC(C5)C3)C4)o2)c1 [Compound 123, 3-{3-[(5-Adamantan-1-yl-furan-2-carbonyl)-amino]-phenyl}-acrylic acid] |
| < 1e-07 |  |  | > 1e-05 | < 1e-06 | O=C(Nc1cccc(OCc2nnn[nH]2)c1)c1cccc(-c2ccccc2)n1 [Compound 174, 6-Phenyl-pyridine-2-carboxylic acid [3-(1H-tetrazol-5-ylmethoxy)-phenyl]-amide] |
| < 1e-07 |  |  | > 1e-05 | < 1e-07 | O=C(Nc1cccc(/C=C/c2nnn[nH]2)c1)c1cccc(-c2ccccc2)n1 [Compound 175, 6-Phenyl-pyridine-2-carboxylic acid {3-[2-(1H-tetrazol-5-yl)-vinyl]phenyl}-amide] |
| < 1e-07 |  |  | > 1e-05 | > 1e-05 | O=C(Nc1cccc(/C=C/c2nnn[nH]2)c1)c1cc(-c2ccccc2)ccc1F [Compound 176, 4-Fluoro-biphenyl-3-carboxylic acid {3-[2-(1H-tetrazol-5-yl)-vinyl]phenyl}-amide] |
